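GI50 is the concentration that inhibits growth by half. TGI marks complete inhibition of growth.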
Key:
Assay in all cases: NCI-60 cell line screen, 384-well format
786-0 renal = tested on: 786-0 renal
A498 renal = tested on: A498 renal
A549 NSCLC = tested on: A549 NSCLC
ACHN renal = tested on: ACHN renal
BT-549 breast = tested on: BT-549 breast
CAKI-1 renal = tested on: CAKI-1 renal
CCRF-CEM leukemia = tested on: CCRF-CEM leukemia
COLO 205 colon = tested on: COLO 205 colon
DU-145 prostate = tested on: DU-145 prostate
EKVX NSCLC = tested on: EKVX NSCLC
HCC-2998 colon = tested on: HCC-2998 colon
HCT-116 colon = tested on: HCT-116 colon
HCT-15 colon = tested on: HCT-15 colon
HL-60(TB) leukemia = tested on: HL-60(TB) leukemia
HOP-62 NSCLC = tested on: HOP-62 NSCLC
HOP-92 NSCLC = tested on: HOP-92 NSCLC
HT29 colon = tested on: HT29 colon
IGROV1 ovarian = tested on: IGROV1 ovarian
K-562 leukemia = tested on: K-562 leukemia
KM12 colon = tested on: KM12 colon
LOX IMVI melanoma = tested on: LOX IMVI melanoma
M14 melanoma = tested on: M14 melanoma
MALME-3M melanoma = tested on: MALME-3M melanoma
MCF7 breast = tested on: MCF7 breast
MDA-MB-231 breast = tested on: MDA-MB-231 breast
MDA-MB-435 melanoma = tested on: MDA-MB-435 melanoma
MDA-MB-468 breast = tested on: MDA-MB-468 breast
MOLT-4 leukemia = tested on: MOLT-4 leukemia
NCI-H226 lung = tested on: NCI-H226 lung
NCI-H23 lung = tested on: NCI-H23 lung
NCI-H322M lung = tested on: NCI-H322M lung
NCI-H460 NSCLC = tested on: NCI-H460 NSCLC
NCI-H522 lung = tested on: NCI-H522 lung
NCI/ADR-RES ovarian = tested on: NCI/ADR-RES ovarian
OVCAR-3 ovarian = tested on: OVCAR-3 ovarian
OVCAR-4 ovarian = tested on: OVCAR-4 ovarian
OVCAR-5 ovarian = tested on: OVCAR-5 ovarian
OVCAR-8 ovarian = tested on: OVCAR-8 ovarian
PC-3 prostate = tested on: PC-3 prostate
RPMI-8226 leukemia = tested on: RPMI-8226 leukemia
RXF 393 renal = tested on: RXF 393 renal
SF-268 CNS = tested on: SF-268 CNS
SF-295 CNS = tested on: SF-295 CNS
SF-539 CNS = tested on: SF-539 CNS
SK-MEL-2 melanoma = tested on: SK-MEL-2 melanoma
SK-MEL-28 melanoma = tested on: SK-MEL-28 melanoma
SK-MEL-5 melanoma = tested on: SK-MEL-5 melanoma
SK-OV-3 ovarian = tested on: SK-OV-3 ovarian
SN12C renal = tested on: SN12C renal
SNB-19 CNS = tested on: SNB-19 CNS
SNB-75 CNS = tested on: SNB-75 CNS
SR leukemia = tested on: SR leukemia
SW-620 colon = tested on: SW-620 colon
T-47D breast = tested on: T-47D breast
TK-10 renal = tested on: TK-10 renal
U251 glioblastoma = tested on: U251 glioblastoma
UACC-257 melanoma = tested on: UACC-257 melanoma
UACC-62 melanoma = tested on: UACC-62 melanoma
UO-31 renal = tested on: UO-31 renal

SMILES: COc1ccc(Cl)c(Nc2nc3ccccc3nc2NS(=O)(=O)c2cccc(NC(=O)C(C)(C)N)c2)c1
- GI50 ([…]-0 renal): 9.77 µM
- TGI (786-0 renal): 22.6 µM
- GI50 (A498 renal): 6.64 µM
- TGI (A498 renal): 19.5 µM
- GI50 (A549 NSCLC): 10.5 µM
- TGI (A549 NSCLC): 22.4 µM
- GI50 (ACHN renal): 10.2 µM
- TGI (ACHN renal): 23.3 µM
- GI50 (BT-549 breast): 3.17 µM
- TGI (BT-549 breast): 14.1 µM
- GI50 (CAKI-1 renal): 7.59 µM
- TGI (CAKI-1 renal): 21.7 µM
- GI50 (CCRF-CEM leukemia): 12 µM
- TGI (CCRF-CEM leukemia): 24.4 µM
- GI50 (COLO 205 colon): 11.3 µM
- TGI (COLO 205 colon): 23.5 µM
- GI50 (DU-145 prostate): 11.4 µM
- TGI (DU-145 prostate): 24.4 µM
- GI50 (EKVX NSCLC): 4.81 µM
- TGI (EKVX NSCLC): 19.5 µM
- GI50 (HCC-2998 colon): 8.3 µM
- TGI (HCC-2998 colon): 22.6 µM
- GI50 (HCT-116 colon): 14.7 µM
- TGI (HCT-116 colon): 28 µM
- GI50 (HCT-15 colon): 12.3 µM
- TGI (HCT-15 colon): 25 µM
- GI50 (HL-60(TB) leukemia): 2.69 µM
- TGI (HL-60(TB) leukemia): 10.7 µM
- GI50 (HOP-62 NSCLC): 13.6 µM
- TGI (HOP-62 NSCLC): 26.6 µM
- GI50 (HOP-92 NSCLC): 0.977 µM
- TGI (HOP-92 NSCLC): 5.87 µM
- GI50 (HT29 colon): 10.2 µM
- TGI (HT29 colon): 21.9 µM
- GI50 (IGROV1 ovarian): 1.38 µM
- TGI (IGROV1 ovarian): 3.79 µM
- GI50 (K-562 leukemia): 13.6 µM
- TGI (K-562 leukemia): 26.6 µM
- GI50 (KM12 colon): 13.7 µM
- TGI (KM12 colon): 26.7 µM
- GI50 (LOX IMVI melanoma): 12.8 µM
- TGI (LOX IMVI melanoma): 25.4 µM
- GI50 (M14 melanoma): 12.5 µM
- TGI (M14 melanoma): 25.1 µM
- GI50 (MALME-3M melanoma): 9.58 µM
- TGI (MALME-3M melanoma): 21.6 µM
- GI50 (MCF7 breast): 2.76 µM
- TGI (MCF7 breast): 14.5 µM
- GI50 (MDA-MB-231 breast): 14.3 µM
- TGI (MDA-MB-231 breast): 27.5 µM
- GI50 (MDA-MB-435 melanoma): 12.5 µM
- TGI (MDA-MB-435 melanoma): 25.1 µM
- GI50 (MDA-MB-468 breast): 1.84 µM
- TGI (MDA-MB-468 breast): 10.1 µM
- GI50 (MOLT-4 leukemia): 2.37 µM
- TGI (MOLT-4 leukemia): 7.66 µM
- GI50 (NCI-H226 lung): 10.9 µM
- TGI (NCI-H226 lung): 22.9 µM
- GI50 (NCI-H23 lung): 4.73 µM
- TGI (NCI-H23 lung): 20.1 µM
- GI50 (NCI-H322M lung): 10.2 µM
- TGI (NCI-H322M lung): 23.4 µM
- GI50 (NCI-H460 NSCLC): 5.5 µM
- TGI (NCI-H460 NSCLC): 18.5 µM
- GI50 (NCI-H522 lung): 9.12 µM
- TGI (NCI-H522 lung): 21.6 µM
- GI50 (NCI/ADR-RES ovarian): 11 µM
- TGI (NCI/ADR-RES ovarian): 23.2 µM
- GI50 (OVCAR-3 ovarian): 3.11 µM
- TGI (OVCAR-3 ovarian): 15.5 µM
- GI50 (OVCAR-4 ovarian): 10.2 µM
- TGI (OVCAR-4 ovarian): 24.4 µM
- GI50 (OVCAR-5 ovarian): 9.79 µM
- TGI (OVCAR-5 ovarian): 22.3 µM
- GI50 (OVCAR-8 ovarian): 12.2 µM
- TGI (OVCAR-8 ovarian): 24.9 µM
- GI50 (PC-3 prostate): 4.02 µM
- TGI (PC-3 prostate): 16.3 µM
- GI50 (RPMI-8226 leukemia): 3.2 µM
- TGI (RPMI-8226 leukemia): 11.4 µM
- GI50 (RXF 393 renal): 2.38 µM
- TGI (RXF 393 renal): 8.35 µM
- GI50 (SF-268 CNS): 10.9 µM
- TGI (SF-268 CNS): 22.9 µM
- GI50 (SF-295 CNS): 5.29 µM
- TGI (SF-295 CNS): 17.9 µM
- GI50 (SF-539 CNS): 8.54 µM
- TGI (SF-539 CNS): 21.1 µM
- GI50 (SK-MEL-2 melanoma): 11.7 µM
- TGI (SK-MEL-2 melanoma): 24.6 µM
- GI50 (SK-MEL-28 melanoma): 3.91 µM
- TGI (SK-MEL-28 melanoma): 16.7 µM
- GI50 (SK-MEL-5 melanoma): 12.8 µM
- TGI (SK-MEL-5 melanoma): 25.5 µM
- GI50 (SK-OV-3 ovarian): 5.4 µM
- TGI (SK-OV-3 ovarian): 19.3 µM
- GI50 (SN12C renal): 8.86 µM
- TGI (SN12C renal): 21.3 µM
- GI50 (SNB-19 CNS): 12.2 µM
- TGI (SNB-19 CNS): 24.8 µM
- GI50 (SNB-75 CNS): 2.43 µM
- TGI (SNB-75 CNS): 10.1 µM
- GI50 (SR leukemia): 8.2 µM
- TGI (SR leukemia): 21.6 µM
- GI50 (SW-620 colon): 10.2 µM
- TGI (SW-620 colon): 22.9 µM
- GI50 (T-47D breast): 1.57 µM
- TGI (T-47D breast): 7.84 µM
- GI50 (TK-10 renal): 5.77 µM
- TGI (TK-10 renal): 19.5 µM
- GI50 (U251 glioblastoma): 11.8 µM
- TGI (U251 glioblastoma): 24.3 µM
- GI50 (UACC-257 melanoma): 11.6 µM
- TGI (UACC-257 melanoma): 24.2 µM
- GI50 (UACC-62 melanoma): 6.72 µM
- TGI (UACC-62 melanoma): 19.6 µM
- GI50 (UO-31 renal): 2.73 µM
- TGI (UO-31 renal): 13.3 µM

Source: PubChem BioAssay (NCI)
